Measurements: publication PMC4746275, “Norfloxacin and N-Donor Mixed-Ligand Copper(II) Complexes: Synthesis, Albumin Interaction, and Anti-Trypanosoma cruzi Activity” (Bioinorganic Chemistry and Applications, 2016)
Read-outs that look alike come from different tables or passages of the source.

Tests used:
[1] = test system: bloodstream trypomastigotes (BT) forms of T. cruzi (Y strain); assay: Trypanocidal analysis in vitro on bloodstream trypomastigotes; type: cell-based, Trypanosoma cruzi; details: for SI (selective index: ratio between LC50/EC50 values): LC50 on mammalian cardiac cells (24 h) / EC50 on BT forms; for EC50: mean ± SD, 24 h of incubation at 37°C, Y strain, read-out: EC50 (drug concentration which reduces the number of the parasites by 50%); for times more active than benznidazole: comparison of EC50 values on bloodstream trypomastigotes
Description: Y strain of T. cruzi was used throughout the experiments. Bloodstream forms were harvested by heart puncture from T. cruzi-infected Swiss mice at the peak of parasitemia.
For the in vitro analysis on trypomastigotes, the parasites were incubated at 310 K in the presence of increasing doses (0–200 μM) of each compound diluted in Dulbecco's modified Eagle's medium which was supplemented with 5% fetal bovine serum and 1 mM L-glutamine (DMES). After 24 h, death rates were determined by light microscopy through the direct quantification of live parasites using Neubauer chamber, and EC50 values (drug concentration which reduces 50% of the number of live parasites) were then calculated as reported.

[2] = biological target: T1, human serum albumin (HSA) (Homo sapiens, UniProt P02768); assay: Quenching of HSA intrinsic fluorescence (Stern-Volmer); type: binding; details: HSA 4 × 10^−6 mol L^−1, 296 K, pH 7.4; standard error 0.2 × 10^4 L mol^−1; corrected for inner filter effect
T1 construct: purchased Sigma-Aldrich
Description: (§1) Steady state fluorescence measurements were performed on a Varian-Agilent Cary Eclipse or a PTI QM1 fluorescence system. UV-Vis absorption spectra were obtained with an Agilent diode array spectrophotometer model 8452A. Fluorescence lifetimes were measured using IBH-Horiba-Jobin Yvon TCSPC system. NanoLEDs with 1.0 ns nominal pulse duration and 1 MHz repetition rate were used as light sources for exciting the intrinsic HSA or BSA fluorescence (283 nm) and NOR fluorescence (330 nm).
(§2) Quenching measurements of albumin fluorescence were taken in 3 mL of BSA or HSA (4 × 10^−6 mol L^−1) in phosphate buffer 10 mM at pH 7.4. The albumin solutions were titrated by successive additions of the complex stock solutions. The fluorescence emission spectra of BSA and HSA were measured using an excitation wavelength of 290 nm. Experiments were performed at ambient temperature (296 K) and pH 7.4.
(§3) In this section, the quenching of BSA and HSA fluorescence by Cu(II) ions, Cu(II)-bipy, Cu(II)-phen, and complexes 1 and 2 was monitored. All the UV absorption and emission spectra were registered. The fluorescence decay curves with excitation at 283 nm and emission at 340 nm were obtained in the absence of the quenchers, at an intermediary and at the final quencher concentration. The raw data are available in Supplementary Material available online at http://dx.doi.org/10.1155/2016/5027404. The fluorescence intensity was attenuated by absorption of the incident and emitted light. […] The fluorescence spectra were corrected using the following expression:(2) Fcorr=Fobs10^Aex+Aeml/2, where F corr and F obs are the corrected and observed fluorescence intensity, A ex and A em are the absorbance at the excitation and emission wavelengths, respectively, and ℓ is the optical path in cm.
(§4) Quenching of a fluorophore by a drug can occur by a static or dynamic process. Static or dynamic quenching at a single site can be described by the Stern-Volmer equation [36]:(3) F0/F=1+KSVQ, where F 0 and F are the fluorescence intensities of albumins in the absence and presence of complexes, respectively. [Q] is the quencher concentration, and K SV is the Stern-Volmer quenching constant, which is related to the bimolecular collisional process in dynamic quenching but is the association constant in static quenching. Stern-Volmer constants were obtained for the linear region of the plots (Table 3).

[3] = test system: bloodstream trypomastigotes (BT) forms of T. cruzi (Y strain); set-up: method as in Martins et al., 2012 [14]; details: ref Martins et al., 2012 [14], cited from earlier work; for SI (selective index: ratio between LC50/EC50 values): LC50 on mammalian cardiac cells / EC50 on BT forms; for EC50: mean ± SD, 24 h of incubation at 37°C, Y strain, read-out: EC50 (drug concentration which reduces the number of the parasites by 50%)
[4] = biological target: T2, bovine serum albumin (BSA) (Bos taurus, UniProt P02769); assay: Quenching of BSA intrinsic fluorescence (Stern-Volmer); type: binding; details: BSA 4 × 10^−6 mol L^−1, 296 K, pH 7.4; standard error 0.2 × 10^4 L mol^−1; corrected for inner filter effect
T2 construct: purchased Sigma-Aldrich
Description: as §1, §2, §3, §4

T2 sequence (P02769 25-607): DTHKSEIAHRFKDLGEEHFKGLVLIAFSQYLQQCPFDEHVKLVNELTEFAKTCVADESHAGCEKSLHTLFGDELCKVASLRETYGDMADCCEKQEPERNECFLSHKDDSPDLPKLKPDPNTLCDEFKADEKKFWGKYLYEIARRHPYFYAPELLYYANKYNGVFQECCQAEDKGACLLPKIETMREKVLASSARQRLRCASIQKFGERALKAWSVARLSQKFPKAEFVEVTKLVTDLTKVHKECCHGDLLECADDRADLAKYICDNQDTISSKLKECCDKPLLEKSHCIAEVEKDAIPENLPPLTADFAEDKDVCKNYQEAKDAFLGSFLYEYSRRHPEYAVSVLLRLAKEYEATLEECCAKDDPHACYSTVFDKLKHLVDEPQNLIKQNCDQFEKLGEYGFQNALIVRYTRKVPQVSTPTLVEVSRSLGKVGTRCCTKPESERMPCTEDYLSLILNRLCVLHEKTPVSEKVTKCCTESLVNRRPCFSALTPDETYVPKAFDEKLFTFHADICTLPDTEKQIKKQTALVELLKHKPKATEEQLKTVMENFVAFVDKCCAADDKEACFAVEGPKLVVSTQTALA
T1 sequence (P02768 25-609): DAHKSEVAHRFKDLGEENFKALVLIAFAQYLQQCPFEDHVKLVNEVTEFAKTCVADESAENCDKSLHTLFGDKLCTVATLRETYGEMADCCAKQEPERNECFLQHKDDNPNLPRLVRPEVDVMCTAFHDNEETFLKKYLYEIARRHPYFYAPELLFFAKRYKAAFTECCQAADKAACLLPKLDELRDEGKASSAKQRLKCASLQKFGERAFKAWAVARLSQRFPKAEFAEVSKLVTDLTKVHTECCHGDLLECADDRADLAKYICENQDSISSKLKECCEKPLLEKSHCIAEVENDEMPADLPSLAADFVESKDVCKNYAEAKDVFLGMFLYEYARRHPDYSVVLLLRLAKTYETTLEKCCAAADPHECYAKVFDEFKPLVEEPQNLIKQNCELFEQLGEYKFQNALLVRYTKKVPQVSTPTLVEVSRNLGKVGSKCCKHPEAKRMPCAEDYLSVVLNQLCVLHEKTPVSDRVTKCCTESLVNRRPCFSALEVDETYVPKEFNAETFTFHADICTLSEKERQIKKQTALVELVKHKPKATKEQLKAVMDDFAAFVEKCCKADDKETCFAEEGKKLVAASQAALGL

[CuCl2(NOR)]
SI (selective index: ratio between LC50/EC50 values) [1]: 0.8
EC50 [1]: 78 ± 12 µM

[CuCl2(phen)]
K SV (Stern-Volmer constant) [2]: 51000 L/mol
SI (selective index: ratio between LC50/EC50 values) [3]: <4
EC50 [3]: 7 ± 5 µM
times more active than benznidazole [1]: 2-3 times
K SV (Stern-Volmer constant) [4]: 35000 L/mol

O=C(Cn1ccnc1[N+](=O)[O-])NCc1ccccc1 [Benznidazole]
SI (selective index: ratio between LC50/EC50 values) [1]: 77
EC50 ([1]; Trypanosoma cruzi): 13 ± 2 µM

[Cu+2] [Cu(II)]
K SV (Stern-Volmer constant) [2]: 29000 L/mol
K SV (Stern-Volmer constant) [4]: 35000 L/mol

[Cl][Cu][Cl].c1ccc(-c2ccccn2)nc1 [[CuCl2(bipy)]]
K SV (Stern-Volmer constant) [2]: 50000 L/mol
SI (selective index: ratio between LC50/EC50 values) [3]: 4.5
EC50 [3]: 14 ± 7 µM
K SV (Stern-Volmer constant) [4]: 31000 L/mol

CCn1cc(C(=O)O)c(=O)c2cc(F)c(N3CCNCC3)cc21 [Norfloxacin, 1-ethyl-6-fluoro-1,4-dihydro-4-oxo-7-(1-piperazinyl)-quinoline-3-carboxylic acid]
SI (selective index: ratio between LC50/EC50 values) [1]: >1.25
EC50 ([1]; Trypanosoma cruzi): 126 ± 30 µM

[CuCl2(phen)(NOR)]·3H2O [complex 2]
K SV (Stern-Volmer constant) [2]: 49000 L/mol
SI (selective index: ratio between LC50/EC50 values) [1]: 2.68
times more active than benznidazole [1]: 2-3 times
EC50 [1]: 4.4 ± 1.4 µM
K SV (Stern-Volmer constant) [4]: 37000 L/mol

[Cl][Cu][Cl] [CuCl2]
SI (selective index: ratio between LC50/EC50 values) [3]: 6
EC50 [3]: 83 ± 3 µM

[CuCl(bipy)(NOR)]Cl·2H2O [complex 1]
K SV (Stern-Volmer constant) [2]: 58000 L/mol
SI (selective index: ratio between LC50/EC50 values) [1]: 4
EC50 [1]: 16 ± 4 µM
K SV (Stern-Volmer constant) [4]: 30000 L/mol
